Assay results published in US10780069B2, “Use of GC-1 in transplant related population” (University of Pittsburgh—Of the Commonwealth System of …, priority 2017, dated 2020).

Legend:
[1] = Serum ALT/bilirubin and hepatic histology after GC-1 or T3; type: in vivo, mice; settings: T3 (4 mg/Kg of diet) or GC-1 (5 mg/Kg of diet) chow 8 days, vs basal diet
Procedure: (§1) All studies on mice were performed in strict accordance with Guidelines. Eight-week old male C57BL/6 male mice (Jackson/Charles River) were maintained on a standard laboratory basal diet (Test Diet) (n=4), or fed a T3-supplemented diet (4 mg/Kg of diet, Sigma Chemicals, St. Louis Mo.) (n=4). GC-1 was administered to the eight week-old male C57BL/6 male mice either via GC-1-supplemented diet (5 mg/Kg of diet, Medchem Express) for 8 days (n=4) or via daily intraperitoneal injections (IP) of GC-1 dissolved in DMSO (0.3 mg/kg/dose) for 8 days (n=7). As a control group for injections, DMSO alone was injected daily intraperitoneal (IP) for 8 days (n=5). Mice were sacrificed 24 hours after the last injection.

[2] = tested on: hepatocytes; experiment: T3- or GC-1-supplemented diet in wild type mice: hepatocyte proliferation; type: in vivo
Procedure: as §1
(§2) To label dividing hepatocytes, BrdU (5-bromodeoxyuridine) dissolved in drinking water (1 mg/ml) was given to all animals throughout the experiment period. The animals were given food and water ad libitum with a 12-hour light/dark daily cycle.
(§3) Four micron liver sections were analyzed by immunohistochemistry for β-Catenin (BD Biosciences, San Jose, Calif.), Cyclin-D1 (Thermo-Scientific, Fremont, Calif.) and PCNA (Santa Cruz Biotechnology, Dallas, Tex.). Briefly, formalin-fixed sections were deparaffinized in graded xylene and alcohol. Endogenous peroxidase was inactivated using 3% hydrogen peroxide (Sigma). For β-Catenin, Cyclin-D1 staining, slides were microwaved in Citrate buffer followed by blocking with Superblock for 10 minutes. Sections were then incubated with secondary anti-mouse (for β-catenin) or anti-rabbit (for Cyclin-D1) horseradish peroxidase-conjugated antibody for 30 minutes.
(§4) Bromodeoxyuridine (BrdU) was stained with mouse antibody (Becton Dickinson) as previously described (Fanti et al. (2014) Hepatology 59, 2309-2320). Briefly, tissue sections were deparaffinized, exposed to 0.3% hydrogen peroxide in deionized water for 10 minutes to block endogenous peroxidase, treated with 2N HCl, incubated with trypsin 0.1% for 20 minutes and then with normal goat serum for 20 minutes at room temperature. Sections were then incubated overnight in cold room with anti-BrdU monoclonal antibody, followed by biotinylated goat anti-mouse IgG. DAB kit was then applied, and sections were counterstained with hematoxylin. A small segment of intestine was included from each mouse as a positive control for the staining. For quantification of BrdU staining, at least 10 high power fields (400× or 600×) fields each from at least three biological replicates were counted as indicated in the figures. Statistical analysis was performed as described below.

[3] = tested on: hepatocytes; experiment: GC-1 or T3 in hepatocyte specific β-catenin knockout mice (β-Cat LKO) and littermate controls; type: in vivo
Procedure: Eight to 10 week old male hepatocyte specific β-catenin knockout mice (β-cat-LKO) or sex-matched littermate controls obtained from breeding homozygous floxed β-catenin mice and albumin-cre transgenic mice (as described elsewhere (Tan et al., (2006) Gastroenterology 131, 1561-1572)) were given 8 daily IP injections of GC-1 (n=4) or DMSO (n=4) and harvested around 24 hours after the last injection.
as §2, §3, §4
(§5) Protein extraction from frozen liver tissue and western blot analysis were performed as previously described (Fanti et al., (2014) Hepatology 59, 2309-2320). For protein extraction, a small amount of frozen liver tissue was obtained (over dry ice) and was homogenized using RIPA buffer with protease and phosphatase inhibitor cocktail (Sigma, St. Louis, Mo.). Samples were transferred to a 1.5 ml tube on ice, and spun in cold room centrifuge at 14,000 RPM for 5 minutes. Pellet was then discarded and sample was aliquoted and stored at −80 C for use. Fifty micrograms of the proteins were resolved by sodium dodecyl sulfate-polyacrylamide gel electrophoresis analysis, and transferred to immobilon-polyvinylidene difluoride membranes.
(§6) The primary antibodies used were against β-catenin (BD Biosciences); pSer675-β-catenin, pSer552-β-catenin, Active-β-catenin (Cell-Signaling), Cyclin-D1 (Thermo-Scientific), and β-Actin (Sigma). Dilutions of primary antibody were done according to manufacturer recommendations (1:1000 for all except Cyclin-D1 which was 1:200). Horseradish peroxidase-conjugated secondary antibodies used were goat anti-mouse (1:20,000) and goat anti-rabbit (1:10,000) (Millipore). The proteins were detected by Super-Signal West Pico Chemiluminescense Substrate (Thermo Scientific, Rockford Ill.) and visualized by autoradiography.
Total RNA was extracted by homogenizing frozen liver tissues in Trizol reagent (Invitrogen, Carlsbad, Calif.) from GC-1-injected β-Cat LKO (n=4) and littermate control mice (n=4); and GC-1-injected LRP5-6 LKO (n=3) and littermate control mice (n=3). […]

[4] = tested on: hepatocytes; experiment: T3 or GC-1 in LRP5-6 LKO mice and littermate controls; type: in vivo
Procedure: Eight to 10 week-old LRP5-6-LKO were obtained from breeding homozygous LRP5-6 double floxed mice with albumin-cre transgenic mice as described previously (Yang et al. (2014) Hepatology 60, 964-976). LRP5-6-LKO or sex matched littermate controls were given either T3-supplemented diet (n=4), basal diet (n=3), IP GC-1 (n=3) or IP DMSO (n=3). Mice were sacrificed at 24 hours after the last IP injection.
To label dividing hepatocytes, BrdU (5-bromodeoxyuridine) dissolved in drinking water (1 mg/ml) was given to all animals throughout the experiment period. The animals were given food and water ad libitum with a 12-hour light/dark daily cycle. […]
as §5
as §6, with “autoradiography. […]” for “autoradiography.”

[5] = tested on: hepatocytes; experiment: Partial hepatectomy after pretreatment with T3 or GC-1 supplemented diet; type: in vivo, mice
Procedure: as §2
After 7 days of receiving T3 supplemented diet (n=3) or GC-1 diet (n=3) or standard basal mouse chow (n=3), C57BL/6 male mice underwent partial hepatectomy as described previously (Tan et al. (2006) Gastroenterology 131, 1561-1572). Anesthesia was provided with inhaled Isoflurane. The animals were sacrificed 24 hours post hepatectomy, after Isoflurane anesthesia and cervical dislocation. Serum and liver tissue were harvested for further processing.
as §3, §4

[6] = tested on: liver regeneration; settings: rats; Columbano et al. (2008); cited from earlier work
[7] = tested on: preneoplastic hepatocytes; settings: resistant-hepatocyte model of hepatocarcinogenesis (T3, rats); Ledda-Columbano 2000, Perra 2009; cited from earlier work

N[C@@H](Cc1cc(I)c(Oc2ccc(O)c(I)c2)c(I)c1)C(=O)O [T3, Triiodothyronine]
histological changes in the livers [1]: no histological changes | BrdU incorporation ([2]; T3 (4 mg/Kg of diet) or GC-1 (5 mg/Kg of diet) chow 8 days, vs basal diet): increased BrdU incorporation | cyclin-D1 staining in hepatocytes ([2]; T3 diet or IP GC-1, 8 days, vs respective controls): notably increased cyclin-D1 staining | cyclin-D1 staining in hepatocytes ([2]; T3 or GC-1 supplemented diet 8 days, vs basal diet): increased in both groups | BrdU-positive hepatocytes, T3 diet versus IP GC-1 ([2]; T3 supplemented diet versus IP GC-1, 8 days, p<0.001 between groups): highest proliferation | active β-catenin, Western blot ([3]; β-Cat LKO after T3 or GC-1 treatment): very faint signal | P-Ser675-β-catenin, Western blot ([3]; β-Cat LKO vs controls treated with GC-1 or T3): absent | pSer675-β-catenin levels, Western blot ([4]; LRP5-6-LKO and littermate controls): comparable or even greater levels | pSer552-β-catenin levels, Western blot ([4]; LRP5-6 LKO): modest increase | active β-catenin levels ([4]; LRP5-6 LKO after T3 or GC-1 feeding vs basal diet): no notable differences | cyclin-D1 protein and mRNA expression ([4]; LRP5-6 LKO vs controls): decreased | numbers of cyclin-D1-positive hepatocytes (immunohistochemistry) ([4]; LRP5-6 LKO vs controls): notably decreased | total β-catenin levels ([4]; LRP5-6 LKO vs controls): comparable levels | number of BrdU-labeled hepatocyte nuclei ([4]; LRP5-6 LKO vs controls, T3 diet 4 mg/Kg of diet or GC-1 0.3 mg/Kg/dose IP 8 days): notable decrease | active β-catenin levels in liver lysates ([4]; control mice fed T3 or GC-1 diet for 8 days vs basal diet): dramatic increase | nuclear cyclin-D1 immunohistochemistry at 24 hours after hepatectomy ([5]; 24 hours after hepatectomy): panlobular distribution | hepatocyte proliferative response post hepatectomy, T3 versus GC-1 ([5]; 24 hours post hepatectomy): significantly greater hepatocyte proliferative response than GC-1 | BrdU positive hepatocyte nuclei at 24 hours after hepatectomy ([5]; diet pretreatment, vs basal diet): pronounced increase | increase in hepatocyte proliferation over the 24-hour liver regeneration period ([5]; pre-hepatectomy vs 24 hour-post hepatectomy, same animals, all three mice): around 2 fold | cyclin-D1 immunohistochemistry in resected lobes at time of hepatectomy ([5]; pretreatment livers): expansion of cyclin-D1 positive hepatocytes in the midzonal area | BrdU-positive hepatocytes in resected lobes at time of hepatectomy ([5]; seven-day pretreatment, vs basal diet): increased BrdU-positive hepatocytes | liver regeneration after partial hepatectomy [6]: regenerative advantage | survival in a 90% hepatectomy model [6]: survival advantage | effect on preneoplastic lesions / carcinogenic process [7]: accelerate remodeling of chemically-induced preneoplastic lesions
